For one data set, the system named is male C57BL/6J mice. In words: Mouse oral glucose tolerance test. The note with it: for Glucose Lowering: at the minimally efficacious dose, plasma glucose AUC in oGTT; for Minimally efficacious Dose: oGTT in C57BL/6J mice. Type of data set: in vivo. On the procedure: Mouse Oral Glucose Tolerance Test
Twenty four (24) male C57BL/6J mice (8-10 weeks old, average weight 28 g) were randomized into 4 groups (1 mouse/cage) of 6 mice per group based on fed plasma glucose and body weight. Prior to initiating the study, mice were fasted overnight and the next morning they were weighed and placed in the experimental lab. After 30 min in the environment, the mice were bled via tail tip at −60 min and immediately given their first oral administration of vehicle (40% PEG400, 10% Cremophor EL, 50% water) or compound solutions (5 ml/kg). At time 0 the mice were bled and given 50% glucose (2 g/kg) to initiate the oral glucose tolerance test (oGTT). The mice were bled 30, 60 and 120 min after the glucose load. Blood samples were drawn into potassium EDTA, placed on ice during the study and subsequently centrifuged for 10 min at 3000 rpm at 4° C. Plasma samples were diluted 11-fold for glucose analysis in the COBAS MIRA® System (Roche Diagnostics). Area under the curve was calculated from the plasma glucose time course data using the trapezoid rule with fasting plasma glucose as the baseline (GraphPad Prism Software). The statistical significance of the changes in the glucose AUCs resulting from the different treatments was determined by one-way ANOVA followed by Dunnett's test using the vehicle group as the control (JMP software, release 5.1.2).
Find below in Table 7 data for compared compounds (See WO 2009/012275 A1).

Another data set concerns the target hERG (Homo sapiens (Human), UniProt Q12809). Kind of data set: Patch clamp electrophysiology assay, hERG. Type of data set: cell-based. The settings on record: HEK293 cells stably expressing hERG, pH 7.4. As to the method: (§1) Compound Electrophysiology Assays
(§2) Recombinant ion channels (hERG, sodium [SCN5A], and L-type calcium [Cav1.2]) stably expressed in human embryonic kidney cells (HEK293) are used as test systems, and each system is tested using 2-3 replicates in the conventional patch clamp assay.
(§3) Ion channel membrane current recordings are made with a Multiclamp 700 series integrating patch-clamp amplifier (Axon Instruments, Foster City, Calif.) using the whole-cell variant of the patch-clamp technique.
Cells expressing hERG, sodium [SCN5A], or L-type calcium [Cav1.2] channels are placed in a plexiglass bath chamber, mounted on the stage of an inverted microscope, and perfused continuously with bath solution. […]
Initially, a current-voltage relationship is generated in the control bath solution using the following voltage protocol. hERG currents are elicited by 2 second step depolarizations applied from a holding potential of −80 mV to test potentials ranging from −70 mV to +60 mV. […] The peak tail current is monitored until a new steady-state in the presence of test article was achieved. This is followed by the application of the next higher concentration of test article to be tested, and is repeated until all concentrations of test article have been evaluated. Effects of test article on hERG channel are calculated by measuring inhibition of peak tail currents. […]
On the technique in general: In patch-clamp work, channel activity is measured electrically.

Another data set has as its target sodium channel SCN5A (Homo sapiens (Human), UniProt Q14524). In words: Patch clamp electrophysiology assay, sodium channel. The data set is classed as cell-based. The settings on record: pH 7.4, 10 μM, HEK293, read-out: Na % Inhibition. As to the method: as §1, §2, §3
Cells expressing hERG, sodium [SCN5A], or L-type calcium [Cav1.2] channels are placed in a plexiglass bath chamber, mounted on the stage of an inverted microscope, and perfused continuously with bath solution.
The sodium current bath solution contains (in mM): 70 NaCl, 70 NMDG, 4 KCl, 1.8 CaCl2, 1 MgCl2, 10 glucose, 10 HEPES (pH 7.4, NaOH). The patch pipette filling solution used in sodium experiments contains (in mM): 130 KCl, 1 MgCl2, 1 CaCl2, 5 ATP-K2, 10 EGTA, 10 HEPES (pH 7.2, KOH).
For determining steady state inhibition, sodium currents are elicited every 5 seconds (0.2 Hz) using the following voltage protocol. Cells are held at a potential of −90 mV and stepped to −20 mV for 45 ms. The peak sodium current in response to the depolarizing step to −20 mV is monitored in the control buffer and after application of test article until a new steady state in the presence of the test article is achieved. To assess the rate dependent inhibition of the sodium currents, trains of voltage steps at frequencies of 1 and 4 Hz (30 sweeps each) are applied to the cell prior to application of test article (control) and after steady state inhibition by test article, as determined at 0.2 Hz frequency. The voltage waveform used in the rate dependence experiments is the same as the waveform used for evaluating steady state inhibition at 0.2 Hz stimulation frequency. Rate dependent inhibition is calculated by comparing the 30th voltage sweep in presence of test article to the 30th voltage sweep under control conditions at each frequency tested.
Compounds are tested in 3 cells at each concentration in each ion channel assay. Currents are sampled at rates at least 2 times the low pass filter rate. The flow rate is kept constant throughout the experiments. All currents were recorded at room temperature ˜25° C. IC50 values are calculated using the sigmoidal concentration-response equation Y=A+((B−A)/(1+((C/X)^D))) in XLfit where A and B are the minimum and maximum % inhibition, C is the IC50 and D is the slope factor.
Find below in Table 11 data for compared compounds (See WO 2011/127106 A1).

A further data set is described as follows: FaSSIF solubility assay. The data set is classed as physicochemical. The note with it: thermodynamic from solid, FaSSIF buffer, 37° C. As to the method:
Approximately 5-10 mg of accurately weighed test compound was transferred to a glass vial containing 4 mL of a FaSSIF buffer (PharesAG, prepared according to manufactures protocol). The vial was then rotated at 37° C. for 24 h. After equilibration time had been met, the test solution was centrifuge filtered through a 0.45 um PTFE membrane filter. The filtrate was then analyzed by HPLC/UV against a set of standard injections to determine compound concentration.
Find below in Table 9 data for compared compounds (See WO 2011/127106 A1).

≈ marks a conversion by molar mass, not a printed value. Where two headings read alike, the source gives them in different places.

The source of these data is US9174965B2, “Pyrimidinylpiperidinyloxypyridone analogues as GPR119 modulators” (BRISTOL-MYERS SQUIBB COMPANY, priority 2012, dated 2015).

Chain of sodium channel SCN5A (Q14524 whole entry, the tested form may be a part): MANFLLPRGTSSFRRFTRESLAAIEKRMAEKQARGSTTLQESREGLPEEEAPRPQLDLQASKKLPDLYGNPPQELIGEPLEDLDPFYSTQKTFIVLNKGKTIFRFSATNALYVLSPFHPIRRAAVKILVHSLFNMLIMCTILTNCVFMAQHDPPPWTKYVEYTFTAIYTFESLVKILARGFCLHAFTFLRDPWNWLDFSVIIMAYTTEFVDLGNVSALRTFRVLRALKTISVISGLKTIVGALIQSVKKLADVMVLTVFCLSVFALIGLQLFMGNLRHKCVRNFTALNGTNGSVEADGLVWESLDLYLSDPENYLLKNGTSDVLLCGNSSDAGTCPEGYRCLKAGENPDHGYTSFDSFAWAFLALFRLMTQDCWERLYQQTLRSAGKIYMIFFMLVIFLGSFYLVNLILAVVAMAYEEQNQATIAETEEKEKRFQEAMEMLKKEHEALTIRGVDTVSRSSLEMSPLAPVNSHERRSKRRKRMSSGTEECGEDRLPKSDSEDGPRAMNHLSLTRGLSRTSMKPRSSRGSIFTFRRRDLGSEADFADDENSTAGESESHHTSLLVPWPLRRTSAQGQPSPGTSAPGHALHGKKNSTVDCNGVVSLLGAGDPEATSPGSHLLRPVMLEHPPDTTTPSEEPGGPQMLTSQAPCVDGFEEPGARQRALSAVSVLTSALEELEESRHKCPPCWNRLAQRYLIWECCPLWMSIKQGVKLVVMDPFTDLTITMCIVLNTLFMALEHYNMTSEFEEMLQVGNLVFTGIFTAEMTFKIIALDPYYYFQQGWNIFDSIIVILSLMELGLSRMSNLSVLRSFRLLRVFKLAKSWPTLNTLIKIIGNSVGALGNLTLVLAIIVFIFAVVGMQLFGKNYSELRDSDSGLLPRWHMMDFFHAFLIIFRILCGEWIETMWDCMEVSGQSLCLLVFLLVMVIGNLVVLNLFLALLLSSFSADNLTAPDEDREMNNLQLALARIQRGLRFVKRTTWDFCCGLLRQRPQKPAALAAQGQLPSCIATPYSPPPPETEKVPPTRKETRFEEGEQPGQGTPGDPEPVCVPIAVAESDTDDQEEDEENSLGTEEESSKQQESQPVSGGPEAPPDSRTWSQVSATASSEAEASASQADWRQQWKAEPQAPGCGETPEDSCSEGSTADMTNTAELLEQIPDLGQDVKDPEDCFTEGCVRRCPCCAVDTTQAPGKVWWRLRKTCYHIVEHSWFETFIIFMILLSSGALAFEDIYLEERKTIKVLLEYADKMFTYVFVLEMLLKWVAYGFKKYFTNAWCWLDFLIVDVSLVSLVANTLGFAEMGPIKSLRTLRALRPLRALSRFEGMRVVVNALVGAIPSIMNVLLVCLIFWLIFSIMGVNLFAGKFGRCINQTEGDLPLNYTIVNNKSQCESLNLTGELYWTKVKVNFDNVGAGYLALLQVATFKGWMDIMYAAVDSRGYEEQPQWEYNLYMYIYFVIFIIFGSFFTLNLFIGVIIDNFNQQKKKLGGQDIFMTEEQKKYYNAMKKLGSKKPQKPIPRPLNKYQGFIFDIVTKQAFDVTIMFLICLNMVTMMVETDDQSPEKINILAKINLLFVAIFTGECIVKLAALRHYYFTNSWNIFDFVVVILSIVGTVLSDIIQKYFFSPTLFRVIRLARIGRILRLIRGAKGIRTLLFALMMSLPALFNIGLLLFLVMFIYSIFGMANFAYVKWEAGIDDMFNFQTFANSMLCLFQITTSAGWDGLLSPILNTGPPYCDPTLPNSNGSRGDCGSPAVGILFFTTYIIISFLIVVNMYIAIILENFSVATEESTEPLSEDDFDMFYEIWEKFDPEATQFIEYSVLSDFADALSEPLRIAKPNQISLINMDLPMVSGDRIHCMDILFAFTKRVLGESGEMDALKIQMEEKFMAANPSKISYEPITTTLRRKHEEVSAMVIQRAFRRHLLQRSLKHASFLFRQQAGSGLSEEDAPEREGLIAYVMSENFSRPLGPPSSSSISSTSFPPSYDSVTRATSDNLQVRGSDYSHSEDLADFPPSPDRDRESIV
Chain of hERG (Q12809 whole entry): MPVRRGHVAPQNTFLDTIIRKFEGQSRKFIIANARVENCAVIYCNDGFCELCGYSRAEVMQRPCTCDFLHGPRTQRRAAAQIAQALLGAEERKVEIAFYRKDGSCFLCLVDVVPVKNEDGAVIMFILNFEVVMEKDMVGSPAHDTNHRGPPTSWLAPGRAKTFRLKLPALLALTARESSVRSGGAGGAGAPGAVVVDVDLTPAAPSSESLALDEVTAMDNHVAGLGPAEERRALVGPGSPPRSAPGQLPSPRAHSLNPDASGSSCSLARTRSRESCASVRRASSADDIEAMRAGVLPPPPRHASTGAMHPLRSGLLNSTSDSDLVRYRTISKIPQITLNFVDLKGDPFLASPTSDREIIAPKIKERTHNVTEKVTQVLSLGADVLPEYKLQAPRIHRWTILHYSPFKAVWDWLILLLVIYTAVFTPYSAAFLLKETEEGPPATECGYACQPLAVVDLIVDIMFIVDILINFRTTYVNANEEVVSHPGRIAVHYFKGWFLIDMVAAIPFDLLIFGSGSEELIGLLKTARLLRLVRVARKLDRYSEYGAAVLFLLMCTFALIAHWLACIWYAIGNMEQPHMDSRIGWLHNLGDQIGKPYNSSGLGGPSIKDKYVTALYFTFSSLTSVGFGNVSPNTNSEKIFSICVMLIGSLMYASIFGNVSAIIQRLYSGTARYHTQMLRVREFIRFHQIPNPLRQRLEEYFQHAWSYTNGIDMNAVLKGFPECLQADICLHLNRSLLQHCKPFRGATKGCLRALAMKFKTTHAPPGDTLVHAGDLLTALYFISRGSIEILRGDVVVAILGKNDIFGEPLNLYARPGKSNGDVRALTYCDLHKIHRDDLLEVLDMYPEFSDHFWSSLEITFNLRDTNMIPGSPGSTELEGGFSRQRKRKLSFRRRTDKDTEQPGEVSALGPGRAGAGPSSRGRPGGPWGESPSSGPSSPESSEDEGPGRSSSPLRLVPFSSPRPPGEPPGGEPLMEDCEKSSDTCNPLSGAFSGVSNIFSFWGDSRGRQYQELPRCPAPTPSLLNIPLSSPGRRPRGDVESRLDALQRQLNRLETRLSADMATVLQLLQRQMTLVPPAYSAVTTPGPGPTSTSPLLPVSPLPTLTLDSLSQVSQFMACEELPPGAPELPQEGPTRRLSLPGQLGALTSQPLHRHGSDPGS

By inhibition is commonly meant the change of the read-out against control, counted positive when it falls. On to `Cc1nc(-n2cc(Cl)c(OC3CCN(c4ncc(Cl)cn4)CC3)cc2=O)ccc1N1CC[C@H](O)C1=O` [Example 3, (S)-5-chloro-4-((1-(5-chloropyrimidin-2-yl)piperidin-4-yl)oxy)-5′-(3-hydroxy-2-oxopyrrolidin-1-yl)-6′-methyl-2H-[1,2′-bipyridin]-2-one], for which the “Glucose Lowering” value in the data set with male C57BL/6J mice is listed as −26%. For the same compound, the “Minimally efficacious Dose” value in the data set with male C57BL/6J mice was 0.03 mg/kg. For the same compound, the inhibition at 30 µM on hERG came out at 33%. The inhibition at 10 µM was determined as 14% at sodium channel SCN5A (1 Hz) and 23% at sodium channel SCN5A (4 Hz).
A word on the solubility: it is how much of the substance goes into solution per volume. A higher solubility goes with a readily soluble substance. Take `Cc1nc(-n2cc(Cl)c(OC3CCN(c4ncc(Cl)cn4)CC3)cc2=O)ccc1N1CC[C@@H](O)C1=O` [Example 4, (R)-5-chloro-4-((1-(5-chloropyrimidin-2-yl)piperidin-4-yl)oxy)-5′-(3-hydroxy-2-oxopyrrolidin-1-yl)-6′-methyl-2H-[1,2′-bipyridin]-2-one]: the “Glucose Lowering” value with male C57BL/6J mice is on record as −39%. In addition, the “Minimally efficacious Dose” value with male C57BL/6J mice is recorded as 0.03 mg/kg. In “FaSSIF solubility assay”, this compound came in with a solubility at 24 h of 11 µg/mL (≈ 20.7 µM). For the same compound, at hERG, 30 µM produced 40% inhibition. The inhibition at 10 µM at sodium channel SCN5A (human, 1 Hz) was determined as 6%; at sodium channel SCN5A (human, 4 Hz), 7%; on sodium channel SCN5A (1 Hz), 6%; at sodium channel SCN5A (4 Hz), 7%.
